Measurements taken from patent US9416141B2 (University of Washington through its Center for …, priority 2012, dated 2016).
Counter-ions that a name gives are not always drawn.

Test system: hair cells
Experiment: Hair cell toxicity assay in zebrafish (neomycin-induced hair cell death, DASPEI staining of neuromasts)
Assay type: in vivo
Settings: Danio rerio; for Emax at 25 µM: maximum observed @ 25 μM test compound; for Emax at 25 µM / Emax at 8.3 µM / Emax at 2.8 µM: 200 micromolar neomycin, read-out: Max HC Protection (HCmax, % hair cell survival); for EC50: zebrafish larvae 5-7 dpf, 1 h pre-treatment, then 200 micromolar neomycin + test compound 30 min, read-out: HC50 (concentration that would produce 50% hair cell survival); for Emax at 8.3 µM: maximum observed @ 8.3 μM test compound; for Emax at 2.8 µM: maximum observed @ 2.8 μM test compound
In short: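 Hair cell survival, as % of untreated controls, came from DASPEI scoring (0-2 each, ten neuromasts on one side) in 5-7 dpf larvae. These had 1 h compound pre-exposure (0.010-25 μM), then 200 μM neomycin with compound for 30 min. HCmax is peak protection; HC50 interpolated between flanking concentrations only when ≥50% survive.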

Row | Structure (SMILES) | Emax at 25 µM | EC50 | Emax at 8.3 µM | Emax at 2.8 µM
1 | CCN1CCc2c(sc(NC(=O)Nc3ccc(Cl)c4ccccc34)c2C(N)=O)C1 [Example 228, 2-{[(4-chloronaphthalen-1-yl)carbamoyl]amino}-6-ethyl-4H,5H,6H,7H-thieno[2,3-c]pyridine-3-carboxamide] | 93% | 1 to 10 µM |  | 
2 | NC(=O)c1c(NC(=O)Nc2ccc(Cl)cc2)sc2c1CCN(C1COC1)C2 [Example 6, 2-[3-(4-Chlorophenyl)ureido]-6-(oxetan-3-yl)-4,5,6,7-tetrahydrothieno[2,3-c]pyridine-3-carboxamide hydrochloride] | 72% | 1 to 10 µM |  | 
3 | CCN1CCc2c(sc(NC(=O)Nc3ccc(Cl)cc3)c2C(=O)NCc2cccnc2)C1 [Example 98, 2-[3-(4-Chlorophenyl)ureido]-6-ethyl-N-(pyridin-3-ylmethyl)-4,5,6,7-tetrahydrothieno[2,3-c]pyridine-3-carboxamide dihydrochloride] | 52% | > 10 µM |  | 
4 | NC(=O)c1c(NC(=O)Nc2ccc(Cl)cc2)sc2c1CC1CCCCN1C2 (racemic) [Example 117, (+/−)-2-[3-(4-chlorophenyl)ureido]-4a,5,6,7,8,10-hexahydro-4H-thieno[3,2-b]quinolizine-3-carboxamide hydrochloride] | 78% | 1 to 10 µM |  | 
5 | C[N+]1(C2CCc3c(sc(NC(=O)Nc4ccc(Cl)cc4)c3C(N)=O)C2)CCC1 (centres unmarked) [Example 170, 1-{3-Carbamoyl-2-[3-(4-chlorophenyl)ureido]-4,5,6,7-tetrahydrobenzo[b]thiophen-6-yl}-1-methylazetidin-1-ium iodide] | 85% | 1 to 10 µM |  | 
6 | CC[N+]1(C)CCc2c(sc(NC(=O)NCc3ccc(Cl)cc3)c2C(N)=O)C1 (centres unmarked) [Example 148, 3-Carbamoyl-2-[3-(4-chlorobenzyl)ureido]-6-ethyl-6-methyl-4,5,6,7-tetrahydrothieno[2,3-c]pyridin-6-ium iodide] | 51% | > 10 µM |  | 
7 | C[N+](C)(C)C1CCc2c(sc(NC(=O)Nc3ccc(Cl)cc3)c2C(N)=O)C1 (centres unmarked) [Example 169, 3-Carbamoyl-2-[3-(4-chlorophenyl)ureido]-N,N,N-trimethyl-4,5,6,7-tetrahydrobenzo[b]thiophen-6-aminium iodide] | 101% | 1 to 10 µM |  | 
8 | CC[N+]1(C)CCc2sc(NC(=O)Nc3ccc(Cl)cc3)c(C(N)=O)c2CC1 (centres unmarked) [Example 174, 3-Carbamoyl-2-[3-(4-chlorophenyl)ureido]-6-ethyl-6-methyl-5,6,7,8-tetrahydro-4H-thieno[2,3-d]azepin-6-ium iodide] | 74% | 1 to 10 µM |  | 
9 | CC[N+]1(CC)CCc2c(sc(NC(=O)Nc3ccc(Cl)cc3)c2C(N)=O)C1 [Example 139, 3-Carbamoyl-2-[3-(4-chlorophenyl)ureido]-6,6-diethyl-4,5,6,7-tetrahydrothieno[2,3-c]pyridin-6-ium iodide] | 99% | < 1 µM |  | 
10 | CN1CCC(N2CCc3c(sc(NC(=O)Nc4ccc(Cl)cc4)c3C(N)=O)C2)C1 (racemic) [Example 9, (+/−)-2-[3-(4-Chlorophenyl)ureido]-6-(1-methylpyrrolidin-3-yl)-4,5,6,7-tetrahydrothieno[2,3-c]pyridine-3-carboxamide dihydrochloride] | 82% | 1 to 10 µM |  | 
11 | NC(=O)c1c(NC(=O)Nc2ccc(Cl)cc2)sc2c1CCN(CC1CCCC1)C2 [Example 17, 2-[3-(4-Chlorophenyl)ureido]-6-(cyclopentylmethyl)-4,5,6,7-tetrahydrothieno[2,3-c]pyridine-3-carboxamide hydrochloride] |  | 1 to 10 µM | 65% | 
12 | C[N+]1(CC2CCC2)CCc2c(sc(NC(=O)Nc3ccc(Cl)cc3)c2C(N)=O)C1 (centres unmarked) [Example 145, 3-Carbamoyl-2-[3-(4-chlorophenyl)ureido]-6-(cyclobutylmethyl)-6-methyl-4,5,6,7-tetrahydrothieno[2,3-c]pyridin-6-ium iodide] |  | < 1 µM | 95% | 
13 | NC(=O)c1c(NC(=O)Nc2ccc(Cl)c3ccccc23)sc2c1CCN(CC1CCC1)C2 [Example 40, 2-[3-(4-Chloronaphthalen-1-yl)ureido]-6-(cyclobutylmethyl)-4,5,6,7-tetrahydrothieno[2,3-c]pyridine-3-carboxamide hydrochloride] |  | 1 to 10 µM | 62% | 
14 | NC(=O)c1c(NC(=O)Nc2ccc(Cl)cc2)sc2c1CCN(CCCNC(=O)CCc1c[nH]c3ccccc13)C2 [Example 209, 2-{[(4-chlorophenyl)carbamoyl]amino}-6-{3-[3-(1H-indol-3-yl)propanamido]propyl}-4H,5H,6H,7H-thieno[2,3-c]pyridine-3-carboxamide] |  | < 1 µM |  | 98%
15 | CC(C)C(C)N1CCc2c(sc(NC(=O)Nc3ccc(Cl)cc3)c2C(N)=O)C1 (racemic) [Example 48, (+/−)-2-[3-(4-Chlorophenyl)ureido]-6-(3-methylbutan-2-yl)-4,5,6,7-tetrahydrothieno[2,3-c]pyridine-3-carboxamide hydrochloride] | 72% | 1 to 10 µM |  | 
16 | C[N+]1(CC2CCC2)C2CCC1c1sc(NC(=O)Nc3ccc(Cl)cc3)c(C(N)=O)c1C2 (racemic) [Example 189, (+/−)-3-Carbamoyl-2-[3-(4-chlorophenyl)ureido]-9-(cyclobutylmethyl)-9-methyl-5,6,7,8-tetrahydro-4H-thienocyclohepten-5,8-iminium trifluoroacetate] | 96% | 1 to 10 µM |  | 
17 | NC(=O)c1c(NC(=O)Nc2ccc(Cl)cc2)sc2c1CC1CCC2N1 (single isomer, unassigned; (-)) [Example 129, (−)-2-[3-(4-Chlorophenyl)ureido]-5,6,7,8-tetrahydro-4H-5,8-epiminocyclohepta[b]thiophene-3-carboxamide hydrochloride] |  | < 1 µM |  | 81%
18 | CCN1CCc2c(sc(NC(=O)C3(c4ccc(Cl)cc4)CC3)c2C(N)=O)C1 [Example 105, 2-[1-(4-chlorophenyl)cyclopropanecarboxamido]-6-ethyl-4,5,6,7-tetrahydrothieno[2,3-c]pyridine-3-carboxamide] | 7% |  |  | 
19 | CC(C1CCC1)N1CCc2c(sc(NC(=O)Nc3ccc(Cl)cc3)c2C(N)=O)C1 (racemic) [Example 47, (+/−)-2-[3-(4-chlorophenyl)ureido]-6-(1-cyclobutylethyl)-4,5,6,7-tetrahydrothieno[2,3-c]pyridine-3-carboxamide hydrochloride] |  | < 1 µM |  | 73%
20 | CCOC(=O)CCCN1CCc2c(sc(NC(=O)Nc3ccc(Cl)cc3)c2C(N)=O)C1 [Example 21, Ethyl 4-{3-carbamoyl-2-[3-(4-chlorophenyl)ureido]-4,5-dihydrothieno[2,3-c]pyridin-6(7H)-yl}butanoate hydrochloride] |  | 1 to 10 µM |  | 57%
21 | NC(=O)c1c(NC(=O)Nc2ccc3ccccc3c2)sc2c1CCN(CC1CCC1)C2 [Example 35, 6-(Cyclobutylmethyl)-2-[3-(naphthalen-2-yl)ureido]-4,5,6,7-tetrahydrothieno[2,3-c]pyridine-3-carboxamide hydrochloride] |  |  |  | 42%
22 | NC(=O)c1c(NC(=O)Nc2ccc(Cl)cc2)sc2c1CCN1CCCCC21 (racemic) [Example 118, (+/−)-2-[3-(4-Chlorophenyl)ureido]-5,7,8,9,10,10a-hexahydro-4H-thieno[2,3-a]quinolizine-3-carboxamide hydrochloride] | 99% | 1 to 10 µM |  | 
23 | NC(=O)c1c(NC(=O)Nc2ccc(Cl)cc2)sc2c1CCN(CCCNC(=O)C1CC1)C2 [Example 215, 2-{[(4-chlorophenyl)carbamoyl]amino}-6-[3-(cyclopropylformamido)propyl]-4H,5H,6H,7H-thieno[2,3-c]pyridine-3-carboxamide] | 95% | 1 to 10 µM |  | 
24 | CN1CCN(CCN2CCc3c(sc(NC(=O)Nc4ccc(Cl)cc4)c3C(N)=O)C2)CC1 [Example 45, 2-[3-(4-Chlorophenyl)ureido]-6-[2-(4-methylpiperazin-1-yl)ethyl]-4,5,6,7-tetrahydrothieno[2,3-c]pyridine-3-carboxamide hydrochloride] | 78% | 1 to 10 µM |  | 
25 | CC(C)C[N+]1(C)CCc2c(sc(NC(=O)Nc3ccc(Cl)cc3)c2C(N)=O)C1 (centres unmarked) [Example 135, 3-carbamoyl-2-[3-(4-chlorophenyl)ureido]-6-isobutyl-6-methyl-4,5,6,7-tetrahydrothieno[2,3-c]pyridin-6-ium iodide] | 107% | < 1 µM |  | 
26 | CCN1CCc2c(sc(NC(=O)Nc3cccc(Cl)c3Cl)c2C(N)=O)C1 [Example 74, 2-[3-(2,3-Dichlorophenyl)ureido]-6-ethyl-4,5,6,7-tetrahydrothieno[2,3-c]pyridine-3-carboxamide hydrochloride] | 54% | > 10 µM |  | 
27 | C[N+]1(CCCC(N)=O)CCc2c(sc(NC(=O)Nc3ccc(Cl)cc3)c2C(N)=O)C1 (centres unmarked) [Example 167, 6-(4-Amino-4-oxobutyl)-3-carbamoyl-2-[3-(4-chlorophenyl)ureido]-6-methyl-4,5,6,7-tetrahydrothieno[2,3-c]pyridin-6-ium trifluoroacetate] |  |  |  | 21%
28 | CCN1CCc2c(sc(NC(=O)Nc3ccc(Cl)cc3)c2C(=O)NCCN(C)C)C1 [Example 99, 2-[3-(4-Chlorophenyl)ureido]-N-[2-(dimethylamino)ethyl]-6-ethyl-4,5,6,7-tetrahydrothieno[2,3-c]pyridine-3-carboxamide dihydrochloride] |  |  |  | 18%
29 | CCN1CCc2c(sc(NC(=O)Nc3ccc(Cl)cc3)c2C(=O)NCC2CC2)C1 [Example 97, 2-[3-(4-Chlorophenyl)ureido]-N-(cyclopropylmethyl)-6-ethyl-4,5,6,7-tetrahydrothieno[2,3-c]pyridine-3-carboxamide hydrochloride] |  |  | 37% | 
